Test results taken from ChEMBL document CHEMBL1147193, “New 5-substituted thiazolo[3,2-b][1,2,4]triazol-6-ones: synthesis and anticancer evaluation” (2007).

How the values were obtained:
Format in all cases: functional
UACC-257 = test: Growth inhibition of human UACC257 cells after 48 hrs by SRB protein assay; conditions: UACC-257, 48 h
KM12 = test: Growth inhibition of human KM12 cells after 48 hrs by SRB protein assay; conditions: KM12, 48 h
786-0 = test: Growth inhibition of human 786-0 cells after 48 hrs by SRB protein assay; conditions: 786-0, 48 h
CAKI-1 = test: Growth inhibition of human CAKI1 cells after 48 hrs by SRB protein assay; conditions: CAKI-1, 48 h
PC-3 = test: Growth inhibition of human PC3 cells after 48 hrs by SRB protein assay; conditions: PC-3, 48 h
RXF 393 = test: Growth inhibition of human RXF393 cells after 48 hrs by SRB protein assay; conditions: RXF 393, 48 h
SF-268 [1] = test: Growth inhibition of human SF268 cells after 48 hrs by SRB protein assay; conditions: SF-268, 48 h
HT-29 = test: Growth inhibition of human HT29 cells after 48 hrs by SRB protein assay; conditions: HT-29, 48 h
SF-268 [2] = test: Anticancer activity against human SF268 cells assessed as growth of cells at 100 uM relative to untreated cells
MCF7 [3] = test: Growth inhibition of human MCF7 cells after 48 hrs by SRB protein assay; conditions: MCF7, 48 h
HCT-15 = test: Growth inhibition of human HCT15 cells after 48 hrs by SRB protein assay; conditions: HCT-15, 48 h
OVCAR-5 = test: Growth inhibition of human OVCAR5 cells after 48 hrs by SRB protein assay; conditions: OVCAR-5, 48 h
SF-295 = test: Growth inhibition of human SF295 cells after 48 hrs by SRB protein assay; conditions: SF-295, 48 h
OVCAR-4 = test: Growth inhibition of human OVCAR4 cells after 48 hrs by SRB protein assay; conditions: OVCAR-4, 48 h
ACHN = test: Growth inhibition of human ACHN cells after 48 hrs by SRB protein assay
UO-31 = test: Growth inhibition of human UO31 cells after 48 hrs by SRB protein assay; conditions: UO-31, 48 h
SN12C = test: Growth inhibition of human SN12C cells after 48 hrs by SRB protein assay
BT-549 = test: Growth inhibition of human BT549 cells after 48 hrs by SRB protein assay; conditions: BT-549, 48 h
M14 = test: Growth inhibition of human M14 cells after 48 hrs by SRB protein assay; conditions: M14, 48 h
NCI-H522 = test: Growth inhibition of human NCI-H522 cells after 48 hrs by SRB protein assay; conditions: NCI-H522, 48 h
[4] = Growth inhibition of human MDA-MB-231/ATCC cells after 48 hrs by SRB protein assay; conditions: MDA-MB-231, 48 h
RPMI-8226 = test: Growth inhibition of human RPMI8226 cells after 48 hrs by SRB protein assay; conditions: RPMI-8226, 48 h
HCT-116 = test: Growth inhibition of human HCT116 cells after 48 hrs by SRB protein assay; conditions: HCT-116, 48 h
HOP-92 = test: Growth inhibition of human HOP92 cells after 48 hrs by SRB protein assay; conditions: HOP-92, 48 h
Hs-578T = test: Growth inhibition of human HS578T cells after 48 hrs by SRB protein assay
SK-MEL-2 = test: Growth inhibition of human SK-MEL-2 cells after 48 hrs by SRB protein assay; conditions: SK-MEL-2, 48 h
MCF7 [5] = test: Anticancer activity against human MCF7 cells assessed as growth of cells at 100 uM relative to untreated cells
K562 = test: Growth inhibition of human K562 cells after 48 hrs by SRB protein assay; conditions: K562, 48 h
U-251 = test: Growth inhibition of human U251 cells after 48 hrs by SRB protein assay; conditions: U-251, 48 h
UACC-62 = test: Growth inhibition of human UACC62 cells after 48 hrs by SRB protein assay; conditions: UACC-62, 48 h
LOX IMVI = test: Growth inhibition of human LOX IMVI cells after 48 hrs by SRB protein assay
HCC 2998 = test: Growth inhibition of human HCC2998 cells after 48 hrs by SRB protein assay; conditions: HCC 2998, 48 h
OVCAR-3 = test: Growth inhibition of human OVCAR-3 cells after 48 hrs by SRB protein assay; conditions: OVCAR-3, 48 h
NCI/ADR-RES = test: Growth inhibition of human NCI/ADR-RES cells after 48 hrs by SRB protein assay
SK-MEL-5 = test: Growth inhibition of human SK-MEL-5 cells after 48 hrs by SRB protein assay; conditions: SK-MEL-5, 48 h
OVCAR-8 = test: Growth inhibition of human OVCAR8 cells after 48 hrs by SRB protein assay; conditions: OVCAR-8, 48 h
NCI-H226 = test: Growth inhibition of human NCI-H226 cells after 48 hrs by SRB protein assay; conditions: NCI-H226, 48 h
NCI-H460 = test: Anticancer activity against human NCI-H460 cells assessed as growth of cells at 100 uM relative to untreated cells
[6] = Growth inhibition of human MALME 3M cells after 48 hrs by SRB protein assay
A549 = test: Growth inhibition of human A549/ATCC cells after 48 hrs by SRB protein assay; conditions: A549, 48 h

## COc1ccc(NC(=O)CC2Sc3ncnn3C2=O)cc1 (configuration not stated)
UACC-257
  GI50: 20 µM
UACC-257; read-out: Log TGI (converted)
  TGI: 36.3 µM
KM12
  GI50: > 100 µM
KM12; read-out: Log TGI (converted)
  TGI: > 100 µM
786-0
  GI50: 16.6 µM
786-0; read-out: Log TGI (converted)
  TGI: 30.9 µM
CAKI-1
  GI50: 18.6 µM
CAKI-1; read-out: Log TGI (converted)
  TGI: 34.7 µM
PC-3
  GI50: 23.4 µM
PC-3; read-out: Log TGI (converted)
  TGI: 56.2 µM
RXF 393
  GI50: 15.5 µM
RXF 393; read-out: Log TGI (converted)
  TGI: 41.7 µM
SF-268 [1]
  GI50: > 100 µM
SF-268 [1]; read-out: Log TGI (converted)
  TGI: > 100 µM
HT-29
  GI50: 47.9 µM
HT-29; read-out: Log TGI (converted)
  TGI: > 100 µM
SF-268 [2]
  Activity: 107%
MCF7 [3]
  GI50: 25.1 µM
MCF7 [3]; read-out: Log TGI (converted)
  TGI: 64.6 µM
HCT-15
  GI50: 24.5 µM
HCT-15; read-out: Log TGI (converted)
  TGI: 52.5 µM
OVCAR-5
  GI50: 18.2 µM
OVCAR-5; read-out: Log TGI (converted)
  TGI: 32.4 µM
SF-295
  GI50: > 100 µM
SF-295; read-out: Log TGI (converted)
  TGI: > 100 µM
OVCAR-4
  GI50: 57.5 µM
OVCAR-4; read-out: Log TGI (converted)
  TGI: > 100 µM
ACHN
  GI50: 21.4 µM
ACHN; read-out: Log TGI (converted)
  TGI: 47.9 µM
UO-31
  GI50: 23.4 µM
UO-31; read-out: Log TGI (converted)
  TGI: 53.7 µM
SN12C
  GI50: 25.1 µM
SN12C; read-out: Log TGI (converted)
  TGI: 56.2 µM
BT-549
  GI50: > 100 µM
BT-549; read-out: Log TGI (converted)
  TGI: > 100 µM
M14
  GI50: 18.2 µM
M14; read-out: Log TGI (converted)
  TGI: 33.9 µM
NCI-H522
  GI50: 19.5 µM
NCI-H522; read-out: Log TGI (converted)
  TGI: 43.7 µM
[4]
  GI50: 21.4 µM
[4]; read-out: Log TGI (converted)
  TGI: 38.9 µM
RPMI-8226
  GI50: 25.1 µM
RPMI-8226; read-out: Log TGI (converted)
  TGI: 64.6 µM
HCT-116
  GI50: 17 µM
HCT-116; read-out: Log TGI (converted)
  TGI: 30.9 µM
HOP-92
  GI50: 21.9 µM
HOP-92; read-out: Log TGI (converted)
  TGI: 49 µM
Hs-578T
  GI50: 25.7 µM
Hs-578T; read-out: Log TGI (converted)
  TGI: 44.7 µM
SK-MEL-2
  GI50: > 100 µM
SK-MEL-2; read-out: Log TGI (converted)
  TGI: > 100 µM
MCF7 [5]
  Activity: 0%
K562
  GI50: 31.6 µM
K562; read-out: Log TGI (converted)
  TGI: > 100 µM
U-251
  GI50: 22.4 µM
U-251; read-out: Log TGI (converted)
  TGI: 44.7 µM
UACC-62
  GI50: > 100 µM
UACC-62; read-out: Log TGI (converted)
  TGI: > 100 µM
LOX IMVI
  GI50: 21.9 µM
LOX IMVI; read-out: Log TGI (converted)
  TGI: 42.7 µM
HCC 2998
  GI50: > 100 µM
HCC 2998; read-out: Log TGI (converted)
  TGI: > 100 µM
OVCAR-3
  GI50: 18.6 µM
OVCAR-3; read-out: Log TGI (converted)
  TGI: 38 µM
NCI/ADR-RES
  GI50: 31.6 µM
NCI/ADR-RES; read-out: Log TGI (converted)
  TGI: > 100 µM
SK-MEL-5
  GI50: 17.4 µM
SK-MEL-5; read-out: Log TGI (converted)
  TGI: 35.5 µM
OVCAR-8
  GI50: 22.4 µM
OVCAR-8; read-out: Log TGI (converted)
  TGI: 46.8 µM
NCI-H226
  GI50: 22.9 µM
NCI-H226; read-out: Log TGI (converted)
  TGI: 42.7 µM
NCI-H460
  Activity: 0%
[6]
  GI50: 17.4 µM
[6]; read-out: Log TGI (converted)
  TGI: 33.9 µM
A549
  GI50: 61.7 µM
A549; read-out: Log TGI (converted)
  TGI: > 100 µM
